The record followed here is publication PMC3793860, “A role for the vesicle-associated tubulin binding protein ARL6 (BBS3) in flagellum extension in Trypanosoma brucei” (Biochimica et Biophysica Acta, 2012).

In the assay the target is T1, TbARL6 (Trypanosoma brucei, UniProt Q57UH8).
T1 construct: gene Tb08.5H5.790; N-terminal His-tagged recombinant TbARL6 (nucleotides 1–570 of the ORF, Tb927.8.5060), expressed in E. coli
T1 sequence (Q57UH8 1-189): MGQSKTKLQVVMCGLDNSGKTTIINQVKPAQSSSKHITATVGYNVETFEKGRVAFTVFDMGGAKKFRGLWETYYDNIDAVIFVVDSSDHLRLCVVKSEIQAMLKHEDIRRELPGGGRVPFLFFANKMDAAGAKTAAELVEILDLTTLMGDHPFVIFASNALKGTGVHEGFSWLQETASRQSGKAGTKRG
The assay is described as follows: mant fluorescence titration, one-site non-linear regression; displacement kinetics. The format is binding.

On to `CNc1ccccc1C(=O)O[C@H]1[C@@H](O)[C@H](n2cnc3c(=O)[nH]c(N)nc32)O[C@@H]1COP(=O)(O)OP(=O)(O)O` [mGDP, mantGDP], for which the Kd (usually the free concentration of one partner at which half of the binding sites on the other are occupied at equilibrium, for simple one-to-one binding) was 4.35 µM.

For the compound `CNc1ccccc1C(=O)O[C@H]1[C@@H](O)[C@H](n2cnc3c(=O)[nH]c(N)nc32)O[C@@H]1COP(=O)(O)OP(=O)(O)OP(=O)(O)O` [mGTP, mantGTP], the affinity, expressed as Kd, was 13.7 µM.
